Patent US20100099698A1, “Compositions for Improving Skin Conditions Comprising Matrine or Its Oxidized Derivatives” (Biospectrum Inc., priority 2007, published 2010)

Legend:
pigmentation of skin = assay: Skin whitening of UV-induced pigmentation, chromameter L* value; type: in vivo, brown guinea pigs; conditions: 1.0 %, topical once or twice a day for 50 days, UV-pigmented abdominal skin
Experimental: A whitening effect of matrine and oxymatrine was measured using brown guinea pigs (Charles River Laboratories, Inc.), known to increase its pigmentation upon exposure to ultraviolet light, like in humans. To cause pigmentation in the brown guinea pig by ultraviolet (UV), aluminum foil with square windows of 3×3 cm^2 was adhered to hair-removed abdominal skin of brown guinea pig, and then UV light was irradiated thereon with a SE lamp (wavelength 290-320 nm, Toshiba) (total irradiation energy=1350 mJ/cm^2). After UV irradiation, the aluminum foil was removed and samples (matrine, oxymatrine or albutin) were applied as the following method. […] From the maximum, samples were applied. Applications performed once or twice a day for 50 days. […] The control with only the solvent was applied to another site. Occurrence of cumulative irritation also was examined. The degree of pigmentation of skin was determined using a chromameter (CR2002, MINOLTA, JP) to estimate the effects of applied samples. L*a*b* colorimetric system was used to classify color and L* value was used as standard in the present invention. The L* value was corrected using white board standard and was measured more than five times at one site, repeatedly. Pigmentation was evenly distributed. Skin color differences (ΔL*) between application initial point and application terminal point were obtained and then using these values, their effects of the applied samples were estimated. ΔL*=L* value at […] after application-L* value at application initial day. Equation 1 ΔL* values were obtained both at sample application site and control application site and compared, whereby the effects of the whitening substances can be estimated.

tyrosinase = target: T1, tyrosinase (Mus musculus, UniProt P11344); assay: Inhibition of intracellular tyrosinase activity in melanoma cells; type: cell-based, Murine; conditions: B16-F1; 100 μM, 3 days, B-16 F1 cells; read-out: Inhibitory rate of intracellular tyrosinase activity (%)
T1 construct: This cell pellets were lysated using lysis buffer, centrifuged at 12,000 rpm for 10 min and the supernatant was collected; endogenous in cells; host or cells: B16 F1 mouse melanoma cells (Korean Cell Line Bank)
T1 sequence (P11344 19-533): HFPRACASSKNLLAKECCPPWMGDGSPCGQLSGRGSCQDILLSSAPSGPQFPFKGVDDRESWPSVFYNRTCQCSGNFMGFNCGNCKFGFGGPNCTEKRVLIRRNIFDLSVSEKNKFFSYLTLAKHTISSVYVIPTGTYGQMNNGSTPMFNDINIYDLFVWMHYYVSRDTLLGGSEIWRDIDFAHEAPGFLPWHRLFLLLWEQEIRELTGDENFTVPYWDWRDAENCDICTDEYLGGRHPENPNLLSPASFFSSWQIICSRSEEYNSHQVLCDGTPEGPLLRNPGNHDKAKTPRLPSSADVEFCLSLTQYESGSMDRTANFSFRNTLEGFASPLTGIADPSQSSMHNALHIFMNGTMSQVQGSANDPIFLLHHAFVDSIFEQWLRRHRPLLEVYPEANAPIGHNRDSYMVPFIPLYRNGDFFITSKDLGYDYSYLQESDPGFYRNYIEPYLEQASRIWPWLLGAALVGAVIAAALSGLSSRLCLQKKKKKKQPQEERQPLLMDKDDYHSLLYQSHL
Experimental: After measuring the inhibition of melanin production by matrine and oxymatrine using B16 mouse melanoma cells (Korean Cell Line Bank), the measurement was compared with that for the inhibition of intracellular tyrosinase activities by arbutin, known as a melanin production inhibitor.
Murine melanoma (B-16 F1) cells were seeded into each well of a 6-well plate (1×10^5 cells/well) in DMEM containing 10% FBS (fetal bovine serum) and the cells were cultured to about more than 80% adherence by incubating in a CO2 incubator under conditions of 37° C. and 5.0% CO2. After cultivation, the medium was removed and samples were replaced in medium diluted at suitable concentration, followed by incubating for 3 days under conditions of 37° C. and 5.0% CO2. […] The cells removing medium were washed with PBS (phosphate buffer saline) and treated with trypsin to collect cells. Number of the collected cells was calculated using hematocytometer, centrifuged at 5,000 to 10,000 rpm for 10 min and the supernatant was eliminated, thereby obtaining pellets. This cell pellets were lysated using lysis buffer, centrifuged at 12,000 rpm for 10 min and the supernatant was collected. Then, the cell solution was measured for absorbance at 492 nm using microplate reader and the activity of tyrosinase per cell constant number was estimated.

B16 mouse melanoma cells = assay: Inhibition of melanin production in melanoma cells; type: cell-based; conditions: 72 h, 100 μM, 3 days, read-out: Inhibitory rate of melanin production (%)
Experimental: After measuring the inhibition of melanin production by matrine and oxymatrine using B16 mouse melanoma cells (Korean Cell Line Bank), the measurement was compared with that for the inhibition of melanin production by arbutin, known as a melanin production inhibitor.
B16 mouse melanoma cells F10 (Korean Cell Line Bank) were seeded into each well of a 6-well plate (1×10^5 cells/well) in DMEM (Dulbecco's modified Eagle's media) containing 10% FBS (fetal bovine serum) and the cells were cultured to about more than 80% confluence by incubating in a CO2 incubator under conditions of 37° C. and 5.0% CO2. After cultivation, the medium was removed and samples were replaced in medium diluted at suitable concentration, followed by incubating for 3 days under conditions of 37° C. and 5.0% CO2. […] The cells removing medium were washed with PBS (phosphate buffer saline) and treated with trypsin to collect cells. Number of the collected cells was calculated using hematocytometer (Tiefe Depth Profondeur 0.100 mm, Paul Marienfeld GmbH & Co. KG, D.E), centrifuged at 5,000 to 10,000 rpm for 10 min and the supernatant was eliminated, thereby obtaining pellets. This cell pellets were dried at 60° C., 100 μl of 1M NaOH containing 10% DMSO was added to thereto, and intracellular melanin was obtained in incubator at 60° C. Then, the cell solution was measured for absorbance at 490 nm using microplate reader (Bio-Tek ELx8081U, U.S) and the amount of melanin per cell constant number was estimated.

OC[C@H]1O[C@@H](Oc2ccc(O)cc2)[C@H](O)[C@@H](O)[C@@H]1O [Albutin, arbutin, reference compound]
Whitening effects (ΔL) (pigmentation of skin): 0.49 | inhibition at 100 µM (tyrosinase): 29% | inhibition at 100 µM (B16 mouse melanoma cells): 26%
